# From US7253192B2, “Phenyl derivatives comprising an acetylene group” (Hoffmann-La Roche Inc., priority 2004, dated 2007)
# Legend:
# PPARγ = molecular target: T1, PPARγ (Mus musculus, UniProt P37238); experiment: Radioligand binding assay (SPA), PPARγ receptor binding; settings: GST-PPARγ-LBD fusion protein, scintillation proximity radioligand binding
# T1 construct: PPARγ (aa 174 to 476); made in house; host or cells: E. coli BL21 (pLysS)
# T1 sequence (P37238 204-505): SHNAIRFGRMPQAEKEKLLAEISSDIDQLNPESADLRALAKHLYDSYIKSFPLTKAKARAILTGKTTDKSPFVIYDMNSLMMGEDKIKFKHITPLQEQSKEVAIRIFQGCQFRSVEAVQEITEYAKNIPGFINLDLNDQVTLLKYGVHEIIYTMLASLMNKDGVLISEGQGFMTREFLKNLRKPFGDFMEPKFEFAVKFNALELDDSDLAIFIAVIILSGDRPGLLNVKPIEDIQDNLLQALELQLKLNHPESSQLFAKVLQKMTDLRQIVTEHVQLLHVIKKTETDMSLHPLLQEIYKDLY
# Source text: (§1) Full-length cDNA clones for humans PPARδ and PPARα and mouse PPARγ were obtained by RT-PCR from human adipose and mouse liver cRNA, respectively, cloned into plasmid vectors and verified by DNA sequencing. Bacterial and mammalian expression vectors were constructed to produce glutathione-s-transferase (GST) and Gal4 DNA binding domain proteins fused to the ligand binding domains (LBD) of PPARδ (aa 139 to 442), PPARγ (aa 174 to 476) and PPARα (aa 167 to 469). To accomplish this, the portions of the cloned sequences encoding the LBDs were amplified from the full-length clones by PCR and then subcloned into the plasmid vectors. Final clones were verified by DNA sequence analysis.
# (§2) Induction, expression, and purification of GST-LBD fusion proteins were performed in E. coli strain BL21 (pLysS) cells by standard methods (Ref: Current Protocols in Molecular Biology, Wiley Press, edited by Ausubel et al.).
# PPARγ receptor binding was assayed in TKE50 (50 mM Tris-HCl, pH 8, 50 mM KCl, 2 mM EDTA, 0.1 mg/ml fatty acid-free BSA and 10 mM DTT). For each 96 well reaction an 140 ng equivalent of GST-PPARγ-LBD fusion protein was bound to 10 μg SPA beads (PharmaciaAmersham) in a final volume of 50 μl by shaking. The resulting slurry was incubated for 1 h at RT and centrifuged for 2 min at 1300 g. The supernatant containing unbound protein was removed and the semidry pellet containing the receptor-coated beads was resolved in 50 ul of TKE. For radioligand binding e.g. 10000 dpm 2(S)-(2-benzoyl-phenylamino)-3-{4-[1,1-ditritio-2-(5-methyl-2-phenyl-oxazol-4-yl)-ethoxy]-phenyl}-propionic acid in 50 μl were added, the reaction incubated at RT for 1 h and scintillation proximity counting performed. All binding assays were performed in 96 well plates and the amount of bound ligand measured on a Packard TopCount using OptiPlates (Packard). Nonspecific binding was determined in the presence of 10^−4 M unlabelled compound. Dose response curves were done in triplicates within a range of concentration from 10^−10 M to 10^−4 M.
# PPARα = molecular target: T2, PPARα (Homo sapiens, UniProt Q07869); experiment: Radioligand binding assay (SPA), PPARα receptor binding; settings: GST-PPARα-LBD fusion protein, scintillation proximity radioligand binding
# T2 construct: PPARα (aa 167 to 469); made in house; host or cells: E. coli BL21 (pLysS)
# T2 sequence (Q07869 167-468 limits assumed): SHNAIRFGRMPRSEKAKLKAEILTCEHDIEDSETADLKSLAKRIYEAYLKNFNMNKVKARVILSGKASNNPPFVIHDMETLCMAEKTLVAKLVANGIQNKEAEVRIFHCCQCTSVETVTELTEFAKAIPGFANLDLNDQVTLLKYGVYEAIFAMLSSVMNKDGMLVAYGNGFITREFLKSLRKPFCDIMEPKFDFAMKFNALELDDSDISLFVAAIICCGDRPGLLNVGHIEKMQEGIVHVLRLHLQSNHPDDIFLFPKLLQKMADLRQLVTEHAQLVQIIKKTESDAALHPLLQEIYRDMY
# Source text: as §1, §2
# PPARα receptor binding was assayed in TKE50 (50 mM Tris-HCl, pH 8, 50 mM KCl, 2 mM EDTA, 0.1 mg/ml fatty acid-free BSA and 10 mM DTT). For each 96 well reaction an 140 ng equivalent of GST-PPARα-LBD fusion protein was bound to 10 μg SPA beads (PharmaciaAmersham) in a final volume of 50 μl by shaking. The resulting slurry was incubated for 1 h at RT and centrifuged for 2 min at 1300 g. The supernatant containing unbound protein was removed and the semidry pellet containing the receptor-coated beads was resolved in 50 μl of TKE. For radioligand binding e.g. 10000 dpm of 2(S)-(2-benzoyl-phenylamino)-3-{4-[1,1-ditritio-2-(5-methyl-2-phenyl-oxazol-4-yl)-ethoxy]-phenyl}-propionic acid or 2,3-ditritio-2(S)-methoxy-3-{4-[2-(5-methyl-2-phenyl-oxazol-4-yl)-ethoxy]-benzo [b]thiophen-7-yl}-propionic acid in 50 ul were added, the reaction incubated at RT for 1 h and scintillation proximity counting performed. All binding assays were performed in 96 well plates and the amount of bound ligand measured on a Packard TopCount using OptiPlates (Packard). Nonspecific binding was determined in the presence of 10^−4 M unlabelled compound. […]
# PPARδ = molecular target: T3, PPARδ (Homo sapiens, UniProt Q03181); experiment: Radioligand binding assay (SPA), PPARδ receptor binding; settings: GST-PPARδ-LBD fusion protein, scintillation proximity radioligand binding
# T3 construct: PPARδ (aa 139 to 442); made in house; host or cells: E. coli BL21 (pLysS)
# T3 sequence (Q03181 139-441 limits assumed): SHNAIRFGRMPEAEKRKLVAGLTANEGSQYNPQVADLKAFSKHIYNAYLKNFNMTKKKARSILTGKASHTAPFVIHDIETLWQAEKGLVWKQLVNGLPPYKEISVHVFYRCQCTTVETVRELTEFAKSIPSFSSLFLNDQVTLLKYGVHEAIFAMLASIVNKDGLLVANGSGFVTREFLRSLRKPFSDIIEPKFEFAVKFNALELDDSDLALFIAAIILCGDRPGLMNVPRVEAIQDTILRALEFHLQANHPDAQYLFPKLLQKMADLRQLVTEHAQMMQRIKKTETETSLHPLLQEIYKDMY
# Source text: as §1, §2
# PPARδ receptor binding was assayed in HNM10 (50 mM Hepes, pH 7.4, 10 mM NaCl, 5 mM MgCl2, 0.15 mg/ml fatty acid-free BSA and 15 mM DTT). For each 96 well reaction a 500 ng equivalent of GST-PPARδ-LBD fusion protein and radioligand, e.g. 20000 dpm {2-methyl-4-[4-methyl-2-(4-trifluoromethyl-phenyl)-thiazol-5-yl-ditritiomethylsulfanyl]-phenoxy}-acetic acid, was bound to 10 μg SPA beads (PharmaciaAmersham) in a final volume of 50 μl by shaking. The resulting slurry was incubated for 1 h at RT and centrifuged for 2 min at 1300 g. The supernatant containing unbound protein was removed and the semidry pellet containing the receptor-coated beads was resuspended in 50 μl of HNM. Radioligand was added and the reaction incubated at RT for 1 h and scintillation proximity counting performed in the presence of test compounds was determined. All binding assays were performed in 96 well plates and the amount of bound ligand was measured on a Packard TopCount using OptiPlates (Packard). Dose response curves were done in triplicates within a range of concentration from 10^−10 M to 10^−4 M.
smiles,measurement,setting,value
"Cc1cc(OCCCC#Cc2cnc(C(F)(F)F)nc2)ccc1OC(C)(C)C(=O)O [Example 28, 2-Methyl-2-{2-methyl-4-[5-(2-trifluoromethyl-pyrimidin-5-yl)-pent-4-ynyloxy]-phenoxy}-propionic acid]",melting point,,95 to 97 °C (dec.)
"Cc1cc(OCCCC#Cc2ccc(Cl)cc2)ccc1OC(C)(C)C(=O)O [Example 15, 2-{4-[5-(4-Chloro-phenyl)-pent-4-ynyloxy]-2-methyl-phenoxy}-2-methyl-propionic acid]",melting point,,119 to 120 °C (dec.)
"Cc1c(OC(C)(C)C(=O)O)ccc(OCCCC#Cc2ccc(OC(F)(F)F)cc2)c1F [Example 33, 2-{3-Fluoro-2-methyl-4-[5-(4-trifluoromethoxy-phenyl)-pent-4-ynyloxy]-phenoxy}-2-methyl-propionic acid]",melting point,,116 to 118 °C
"Cc1cc(SCCC#Cc2ccc(C(F)(F)F)cc2)ccc1OCC(=O)O [Example 12, {2-Methyl-4-[4-(4-trifluoromethyl-phenyl)-but-3-ynylsulfanyl]-phenoxy}-acetic acid]",melting point,,129 to 130 °C
"Cc1cc(SCCCC#Cc2ccc(OC(F)(F)F)cc2)ccc1OCC(=O)O [Example 4, {2-Methyl-4-[5-(4-trifluoromethoxy-phenyl)-pent-4-ynylsulfanyl]-phenoxy}-acetic acid]",melting point,,94 to 95 °C
same,IC50,PPARγ,> 10 µM
same,IC50,PPARα,14 nM
same,IC50,PPARδ,39 nM
"CC(C)(Oc1ccc(CNC(=O)CCC#Cc2ccc(OC(F)(F)F)cc2)cc1)C(=O)O [Example 29, 2-Methyl-2-(4-{[5-(4-trifluoromethoxy-phenyl)-pent-4-ynoylamino]-methyl}-phenoxy)-propionic acid]",melting point,,127 to 128 °C (dec.)
"Cc1cc(SCC#Cc2cccc(C(F)(F)F)c2)ccc1OCC(=O)O [Example 6, {2-Methyl-4-[3-(3-trifluoromethyl-phenyl)-prop-2-ynylsulfanyl]-phenoxy}-acetic acid]",melting point,,81 to 82 °C
"Cc1cc(OCCC#Cc2ccc(OC(F)(F)F)cc2)ccc1OC(C)(C)C(=O)O [Example 17, 2-Methyl-2-{2-methyl-4-[4-(4-trifluoromethoxy-phenyl)-but-3-ynyloxy]-phenoxy}-propionic acid]",melting point,,62 to 71 °C (dec.)
same,IC50,PPARγ,> 10 µM
same,IC50,PPARα,18 nM
same,IC50,PPARδ,203 nM
"Cc1cc(SCC#Cc2ccccc2C(F)(F)F)ccc1OCC(=O)O [Example 7, {2-Methyl-4-[3-(2-trifluoromethyl-phenyl)-prop-2-ynylsulfanyl]-phenoxy}-acetic acid]",melting point,,95 to 97 °C
"Cc1cc(OCCCC#Cc2ccc(Cl)c(F)c2)ccc1OC(C)(C)C(=O)O [Example 27, 2-{4-[5-(4-Chloro-3-fluoro-phenyl)-pent-4-ynyloxy]-2-methyl-phenoxy}-2-methyl-propionic acid]",melting point,,106 to 107 °C (dec.)
"Cc1cc(OCCC#Cc2ccc(Cl)cc2)ccc1OC(C)(C)C(=O)O [Example 18, 2-{4-[4-(4-Chloro-phenyl)-but-3-ynyloxy]-2-methyl-phenoxy}-2-methyl-propionic acid]",melting point,,68 to 69 °C (dec.)
"Cc1cc(SCC#Cc2ccc(Cl)cc2)ccc1OCC(=O)O [Example 8, {4-[3-(4-Chloro-phenyl)-prop-2-ynylsulfanyl]-2-methyl-phenoxy}-acetic acid]",melting point,,106 to 108 °C
"Cc1cc(SCC#Cc2ccc(C(F)(F)F)cc2)ccc1OCC(=O)O [Example 5, {2-Methyl-4-[3-(4-trifluoromethyl-phenyl)-prop-2-ynylsulfanyl]-phenoxy}-acetic acid]",melting point,,130 to 131 °C
"COc1ccc(C#CCSc2ccc(OCC(=O)O)c(C)c2)cc1 [Example 9, {4-[3-(4-Methoxy-phenyl)-prop-2-ynylsulfanyl]-2-methyl-phenoxy}-acetic acid]",melting point,,143 to 144 °C
"Cc1cc(OCCCC#Cc2ccc(OC(F)(F)F)cc2)ccc1OC(C)(C)C(=O)O [Example 13, 2-Methyl-2-{2-methyl-4-[5-(4-trifluoromethoxy-phenyl)-pent-4-ynyloxy]-phenoxy}-propionic acid]",melting point,,90 to 91 °C (dec.)
same,IC50,PPARγ,> 10 µM
same,IC50,PPARα,21 nM
same,IC50,PPARδ,120 nM
"Cc1cc(SCC#Cc2ccccc2)ccc1OCC(=O)O [Example 10, [2-Methyl-4-(3-phenyl-prop-2-ynylsulfanyl)-phenoxy]-acetic acid]",melting point,,90 to 92 °C
"Cc1cc(OCCCC#Cc2ccc(OC(F)(F)F)cc2)ccc1OCC(=O)O [Example 20, {2-Methyl-4-[5-(4-trifluoromethoxy-phenyl)-pent-4-ynyloxy]-phenoxy}-acetic acid]",melting point,,124.6 to 126.7 °C
"CC(C)(Oc1ccc(OCCCC#Cc2ccc(OC(F)(F)F)cc2)c(F)c1)C(=O)O [Example 32, 2-{3-Fluoro-4-[5-(4-trifluoromethoxy-phenyl)-pent-4-ynyloxy]-phenoxy}-2-methyl-propionic acid]",melting point,,65.5 to 68.5 °C
"Cc1cc(OCCCC#Cc2ccc(C(F)(F)F)cc2)ccc1OC(C)(C)C(=O)O [Example 14, 2-Methyl-2-{2-methyl-4-[5-(4-trifluoromethyl-phenyl)-pent-4-ynyloxy]-phenoxy}-propionic acid]",melting point,,114 to 115 °C (dec.)
